Experimental data as given in patent publication US9567336B2, “Conjugated TLR7 and/or TLR8 and TLR2 agonists” (CAYLA, priority 2012, dated 2017).

Legend:
[1] = molecular target: T1, murine TLR7 (Mus musculus, UniProt P58681); test: HEK-Blue mTLR7 NF-κB/AP-1 SEAP reporter cell assay; format: cell-based; settings: HEK-Blue mTLR7 reporter cells, 10 μg/mL to 10 pg/ml, 24 hours, OD at 655 nm; FIGS. 2A, 2B
T1 construct: host or cells: HEK293 (HEK-Blue mTLR7)
T1 sequence (P58681 27-1050): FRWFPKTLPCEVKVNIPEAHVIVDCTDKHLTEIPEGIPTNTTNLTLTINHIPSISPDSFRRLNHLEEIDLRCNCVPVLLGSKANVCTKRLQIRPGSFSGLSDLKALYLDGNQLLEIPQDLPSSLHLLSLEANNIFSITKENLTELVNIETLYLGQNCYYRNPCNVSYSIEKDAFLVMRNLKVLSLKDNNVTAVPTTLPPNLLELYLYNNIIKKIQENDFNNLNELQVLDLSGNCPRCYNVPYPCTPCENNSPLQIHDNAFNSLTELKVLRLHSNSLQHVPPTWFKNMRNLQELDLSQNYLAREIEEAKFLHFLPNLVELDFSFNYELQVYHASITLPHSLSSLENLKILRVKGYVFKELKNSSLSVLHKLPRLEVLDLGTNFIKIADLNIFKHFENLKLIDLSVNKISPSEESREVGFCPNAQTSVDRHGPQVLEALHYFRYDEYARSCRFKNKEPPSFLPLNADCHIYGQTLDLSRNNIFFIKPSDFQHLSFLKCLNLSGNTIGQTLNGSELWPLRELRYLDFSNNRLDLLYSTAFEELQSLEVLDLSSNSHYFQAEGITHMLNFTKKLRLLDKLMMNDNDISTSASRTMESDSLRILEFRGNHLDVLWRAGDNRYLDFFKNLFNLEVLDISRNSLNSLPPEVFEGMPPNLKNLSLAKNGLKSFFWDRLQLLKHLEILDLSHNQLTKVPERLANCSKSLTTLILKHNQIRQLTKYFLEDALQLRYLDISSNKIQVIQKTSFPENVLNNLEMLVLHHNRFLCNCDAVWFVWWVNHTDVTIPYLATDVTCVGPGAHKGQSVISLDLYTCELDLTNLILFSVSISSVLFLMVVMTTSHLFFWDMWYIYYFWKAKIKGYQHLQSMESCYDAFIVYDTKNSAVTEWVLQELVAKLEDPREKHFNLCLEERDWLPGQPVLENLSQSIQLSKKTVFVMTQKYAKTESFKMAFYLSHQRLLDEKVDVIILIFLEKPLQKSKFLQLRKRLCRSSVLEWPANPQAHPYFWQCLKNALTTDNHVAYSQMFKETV
Protocol: (§1) Some conjugated compounds of the invention were tested for their ability to activate TLR7 and TLR2 receptor signaling. Cell-based assays were carried out using TLR7 and TLR2 reporter cell lines (InvivoGen). The reporter cell lines are engineered HEK293 cells, a human embryonic kidney cell line (ATCC, CRL-1573) that stably express either murine TLR7 (HEK-Blue™ mTLR7) or human TLR7 (HEK-Blue™ hTLR7) or murine TLR2 (HEK-Blue™ mTLR2) or human TLR2 (HEK-Blue™ hTLR2) with an NF-κB-inducible secreted embryonic alkaline phosphatase (SEAP) as the reporter gene. The SEAP reporter gene is placed under the control of the NF-κB and AP-inducible promoter. Stimulation with the corresponding TLR ligand activates NF-κB and AP-1, which induces the production of SEAP. Detection of SEAP is measured following culturing cells in HEK-Blue™ Detection media (InvivoGen). HEK-Blue™ Detection contains a SEAP substrate, which upon hydrolysis by SEAP produces a colorimetric change allowing for detection of SEAP as the protein is secreted. […] These assays were carried out using RAW-Blue™ Cells (InvivoGen), derived from RAW 264.7 mouse leukemic monocytic macrophage cell line (ATCC, CRL 2278) stably overexpressing a NF-κB/AP-1 inducible SEAP reporter constructs.
(§2) To perform the assay, cells were seeded on 96 well microliter plates at 50,000 or 100,000 cells per well for HEK-Blue™ Cells and RAW-Blue™ Cells respectively, and cultured at 37° C. in the presence of the conjugated compounds. The conjugated compounds were prepared as follows: First, stock solutions of the small molecule conjugated compounds of the invention were prepared in ethanol or water to a concentration of 10 mg/ml. A working dilution of the conjugated TLR7-TLR2 small molecules was made up in water and added to cells at a final range of concentrations from 10 μg/mL to 10 pg/ml. The working dilutions of the conjugated TLR7-TLR2 small molecules as the stated concentrations were directly added to the reporter cell lines and incubated at 37° C. for 24 hours. After 24 hours of incubation, the effect on reporter gene activity was determined by reading the OD at 655 nm using iMark™ Microplate Reader (BIO-RAD).
(§3) The conjugated compounds were tested alone for their ability to specifically activate TLR7 and TLR2, alongside the known TLR7 activators R848 or CL264 (InvivoGen) and the TLR2 agonists Pam2CSK4 or Pam3CSK4 (InvivoGen). The specificity of the TLR activity was determined by use of reporter cell lines to the other TLRs (data not shown). […] The molecules show a tendency to activate mouse TLR7 with greater sensitivity than human TLR7. […] Furthermore, dose-dependent responses of the conjugated compounds indicate significant TLR activities of TLR7 and TLR2 compared to the corresponding controls.

[2] = molecular target: T2, human TLR2 (Homo sapiens, UniProt O60603); test: HEK-Blue hTLR2 NF-κB/AP-1 SEAP reporter cell assay; format: cell-based; settings: HEK-Blue hTLR2 reporter cells, 10 μg/mL to 10 pg/ml, 24 hours, OD at 655 nm; FIGS. 3A, 3B
T2 construct: host or cells: HEK293 (HEK-Blue hTLR2)
T2 sequence (O60603 21-784): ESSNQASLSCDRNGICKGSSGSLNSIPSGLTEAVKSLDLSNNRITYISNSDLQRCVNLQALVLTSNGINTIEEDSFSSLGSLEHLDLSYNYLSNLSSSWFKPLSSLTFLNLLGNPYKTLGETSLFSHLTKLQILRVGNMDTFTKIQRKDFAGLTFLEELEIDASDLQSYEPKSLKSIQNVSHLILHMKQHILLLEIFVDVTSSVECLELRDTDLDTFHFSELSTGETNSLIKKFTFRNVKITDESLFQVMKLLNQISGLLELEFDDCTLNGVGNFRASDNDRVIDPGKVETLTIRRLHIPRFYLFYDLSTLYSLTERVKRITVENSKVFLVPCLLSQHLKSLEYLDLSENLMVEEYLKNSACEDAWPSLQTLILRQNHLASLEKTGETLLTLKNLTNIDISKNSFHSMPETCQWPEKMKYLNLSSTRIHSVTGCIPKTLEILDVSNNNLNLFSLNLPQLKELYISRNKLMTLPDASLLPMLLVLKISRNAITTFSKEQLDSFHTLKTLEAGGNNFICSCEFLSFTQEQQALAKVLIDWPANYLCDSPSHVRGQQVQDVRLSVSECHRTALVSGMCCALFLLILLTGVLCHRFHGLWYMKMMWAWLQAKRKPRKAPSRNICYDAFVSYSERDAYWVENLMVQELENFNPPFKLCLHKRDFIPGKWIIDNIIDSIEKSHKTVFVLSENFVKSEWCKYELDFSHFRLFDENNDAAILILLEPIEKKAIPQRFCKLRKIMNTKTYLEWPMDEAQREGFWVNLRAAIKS
Protocol: as §1, §2, §3

[3] = system: NF-κB in RAW-Blue™ Cells (RAW 264.7, endogenous TLR7 and TLR2); test: RAW-Blue Cells NF-κB/AP-1 inducible SEAP reporter assay; format: cell-based, mouse; settings: murine monocytic macrophage cell line RAW 264.7, 24 hours, OD at 655 nm; FIGS. 5A, 5B
Protocol: as §1, §2, §3

[4] = molecular target: T3, human TLR7 (Homo sapiens, UniProt Q9NYK1); test: HEK-Blue hTLR7 NF-κB/AP-1 SEAP reporter cell assay; format: cell-based; settings: HEK-Blue hTLR7 reporter cells, 10 μg/mL to 10 pg/ml, 24 hours, OD at 655 nm; FIGS. 1A, 1B
T3 construct: host or cells: HEK293 (HEK-Blue hTLR7)
T3 sequence (Q9NYK1 27-1049): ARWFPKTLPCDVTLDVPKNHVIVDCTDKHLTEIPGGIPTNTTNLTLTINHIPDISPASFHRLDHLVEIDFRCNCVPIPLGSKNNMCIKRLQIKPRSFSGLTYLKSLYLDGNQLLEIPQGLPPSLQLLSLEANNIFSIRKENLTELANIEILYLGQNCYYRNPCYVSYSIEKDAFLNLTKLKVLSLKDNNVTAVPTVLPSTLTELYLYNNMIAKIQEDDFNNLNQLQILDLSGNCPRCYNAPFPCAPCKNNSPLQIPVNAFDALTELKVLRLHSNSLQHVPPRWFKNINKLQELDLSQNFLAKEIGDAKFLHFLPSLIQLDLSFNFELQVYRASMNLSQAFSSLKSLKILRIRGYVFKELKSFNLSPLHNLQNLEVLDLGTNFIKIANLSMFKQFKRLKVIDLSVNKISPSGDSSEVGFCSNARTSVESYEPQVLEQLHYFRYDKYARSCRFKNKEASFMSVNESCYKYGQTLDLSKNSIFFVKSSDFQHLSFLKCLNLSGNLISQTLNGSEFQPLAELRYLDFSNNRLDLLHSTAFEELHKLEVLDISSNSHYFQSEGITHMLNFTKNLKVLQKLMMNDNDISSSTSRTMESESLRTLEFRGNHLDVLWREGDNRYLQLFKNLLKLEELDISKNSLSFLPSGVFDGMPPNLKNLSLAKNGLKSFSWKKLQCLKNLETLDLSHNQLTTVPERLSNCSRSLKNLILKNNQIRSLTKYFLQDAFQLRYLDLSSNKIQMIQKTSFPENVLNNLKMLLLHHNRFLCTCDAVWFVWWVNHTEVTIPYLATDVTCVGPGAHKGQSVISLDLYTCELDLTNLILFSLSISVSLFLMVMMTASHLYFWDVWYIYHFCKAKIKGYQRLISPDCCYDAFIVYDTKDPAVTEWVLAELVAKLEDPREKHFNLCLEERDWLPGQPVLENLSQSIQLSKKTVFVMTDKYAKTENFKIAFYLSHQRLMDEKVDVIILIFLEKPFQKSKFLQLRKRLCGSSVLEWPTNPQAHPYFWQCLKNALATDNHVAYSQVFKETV
Protocol: as §1, §2, §3

[5] = molecular target: T4, murine TLR2 (Mus musculus, UniProt Q9QUN7); test: HEK-Blue mTLR2 NF-κB/AP-1 SEAP reporter cell assay; format: cell-based; settings: HEK-Blue mTLR2 reporter cells, 10 μg/mL to 10 pg/ml, 24 hours, OD at 655 nm; FIG. 4
T4 construct: host or cells: HEK293 (HEK-Blue mTLR2)
T4 sequence (Q9QUN7 25-784): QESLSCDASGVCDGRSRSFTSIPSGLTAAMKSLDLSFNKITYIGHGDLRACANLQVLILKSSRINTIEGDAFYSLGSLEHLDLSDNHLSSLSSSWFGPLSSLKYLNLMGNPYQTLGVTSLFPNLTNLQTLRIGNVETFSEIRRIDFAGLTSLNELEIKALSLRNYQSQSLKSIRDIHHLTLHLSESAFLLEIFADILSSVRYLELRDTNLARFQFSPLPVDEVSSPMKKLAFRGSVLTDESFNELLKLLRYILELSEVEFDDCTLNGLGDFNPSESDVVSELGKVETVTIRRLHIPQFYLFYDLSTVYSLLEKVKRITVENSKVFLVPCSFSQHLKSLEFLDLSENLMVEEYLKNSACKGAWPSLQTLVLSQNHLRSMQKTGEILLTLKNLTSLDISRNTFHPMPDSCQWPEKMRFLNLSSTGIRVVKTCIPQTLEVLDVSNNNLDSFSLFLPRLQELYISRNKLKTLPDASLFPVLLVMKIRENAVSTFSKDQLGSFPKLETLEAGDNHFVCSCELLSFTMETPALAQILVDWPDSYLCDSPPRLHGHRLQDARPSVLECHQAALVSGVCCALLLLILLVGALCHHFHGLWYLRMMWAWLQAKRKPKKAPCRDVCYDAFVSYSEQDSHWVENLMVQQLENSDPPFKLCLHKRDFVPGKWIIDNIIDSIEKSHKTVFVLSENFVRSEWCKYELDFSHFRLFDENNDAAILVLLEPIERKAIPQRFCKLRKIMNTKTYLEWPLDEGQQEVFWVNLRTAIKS
Protocol: as §1, §2, §3

| Compound | ability to activate TLR7 receptors (murine TLR7) [1] | ability to activate TLR2 receptor (human TLR2) [2] | induction of NF-κB in RAW-Blue cells [3] | ability to activate TLR7 receptors (human TLR7) [4] | ability to activate TLR2 receptor (murine TLR2) [5] |
| --- | --- | --- | --- | --- | --- |
| CCCCCCCCCCCCCC(=O)OCCSC[C@H](N)C(=O)N[C@@H](CO)C(=O)Nc1ccc(Cn2c(O)nc3c(N)nc(NCCCC)nc32)cc1 [CL558, 2-((R)-2-amino-3-((S)-1-(4-((6-amino-2-(butylamino)-8-hydroxy-9H-purin-9-yl)methyl)phenylamino)-3-hydroxy-1-oxopropan-2-ylamino)-3-oxopropylthio)ethyltetradecanoate] | activate TLR7 receptors | activate TLR2 receptor | activate NF-κB | activate TLR7 receptors | activate TLR2 receptor |
| CCCCCCCCCCCCCCCC(=O)OCCSC[C@H](N)C(=O)N[C@@H](CO)C(=O)Nc1ccc(Cn2c(O)nc3c(N)nc(NCCCC)nc32)cc1 [CL559, 2-((R)-2-amino-3-((S)-1-(4-((6-amino-2-(butylamino)-8-hydroxy-9H-purin-9-yl)methyl)phenylamino)-3-hydroxy-1-oxopropan-2-ylamino)-3-oxopropylthio)ethyl palmitate] | activate TLR7 receptors | activate TLR2 receptor | activate NF-κB | activate TLR7 receptors | activate TLR2 receptor |
| CCCCCCCCCCCCCCCCCC(=O)OCCSC[C@H](N)C(=O)N[C@@H](CO)C(=O)Nc1ccc(Cn2c(O)nc3c(N)nc(NCCCC)nc32)cc1 [CL560, 2-((R)-2-amino-3-((S)-1-(4-((6-amino-2-(butylamino)-8-hydroxy-9H-purin-9-yl)methyl)phenylamino)-3-hydroxy-1-oxopropan-2-ylamino)-3-oxopropylthio)ethyl stearate] | activate TLR7 receptors | activate TLR2 receptor | activate NF-κB | activate TLR7 receptors | activate TLR2 receptor |
